Measurements taken from ChEMBL document CHEMBL1127182, “DNA gyrase inhibitory and antibacterial activity of some flavones(1)” (Bioorg Med Chem Lett, 1993).
≈ marks a conversion by molar mass, not a printed value. Where “and” joins values, the source holds several entries; their conditions need not be identical. Equal values may be shown once.

Key:
[1] = system: Escherichia coli; assay: Tested for antibacterial activity as minimum inhibitory concentration against Escherichia coli-ss in the presence of polymyxin B nonapeptide (PBMN) at 1 ug/mL; format: functional
[2] = system: Stenotrophomonas maltophilia; assay: Tested for antibacterial activity as minimum inhibitory concentration against Pseudomonas maltophilia 1057 in the presence of polymyxin B nonapeptide (PBMN) at 0 ug/mL; format: functional
[3] = system: Escherichia coli; assay: Tested for antibacterial activity as minimum inhibitory concentration against Escherichia coli KL-16 in the presence of polymyxin B nonapeptide (PBMN) at 1 ug/mL; format: functional
[4] = target: DNA gyrase (Escherichia coli, UniProt P0AES4+P0AES6); assay: In vitro antibacterial activity was determined as inhibitory concentration causing 50% DNA-gyrase supercoiling inhibition (SCI); format: protein-complex assay
[5] = system: Escherichia coli; assay: Tested for antibacterial activity as minimum inhibitory concentration against Escherichia coli KL-16 in the absence of polymyxin B nonapeptide (PBMN) at 0 ug/mL; format: functional
[6] = system: Staphylococcus epidermidis; assay: Tested for antibacterial activity as minimum inhibitory concentration against Staphylococcus epidermidis strain OC2603; format: functional
[7] = system: Salmonella typhimurium; assay: Tested for antibacterial activity as minimum inhibitory concentration against Salmonella Typhimurium 701 in the presence of polymyxin B nonapeptide (PBMN) at 1 ug/mL; format: functional, Salmonella enterica subsp. enterica serovar Typhimurium
[8] = system: Stenotrophomonas maltophilia; assay: Tested for antibacterial activity as minimum inhibitory concentration against Pseudomonas maltophilia 1057 in the presence of polymyxin B nonapeptide (PBMN) at 1 ug/mL; format: functional
[9] = system: Escherichia coli; assay: Tested for antibacterial activity as minimum inhibitory concentration against Escherichia coli-ss in the absence of polymyxin B nonapeptide (PBMN) at 0 ug/mL; format: functional
[10] = system: Staphylococcus aureus; assay: Tested for antibacterial activity as minimum inhibitory concentration against Staphylococcus aureus strain OC6538; format: functional
[11] = system: Salmonella typhimurium; assay: Tested for antibacterial activity as minimum inhibitory concentration against Salmonella Typhimurium 701 in the absence of polymyxin B nonapeptide (PBMN) at 0 ug/mL; format: functional, Salmonella enterica subsp. enterica serovar Typhimurium; conditions: Salmonella enterica
[12] = Escherichia coli, read-out: MIC
[13] = Salmonella enterica, read-out: MIC
[14] = Staphylococcus aureus, read-out: MIC

Row | SMILES | MIC [1, 12] | MIC [2] | MIC [3] | IC50 [4] | MIC [5] | MIC [6] | MIC [7, 13] | MIC [8] | MIC [9, 12] | MIC [10, 14] | MIC [11] | MIC ([7]; Salmonella enterica) | MIC [10] | MIC [1] | MIC [7] | MIC [9]
1 | COc1cc2oc(-c3ccccc3)cc(=O)c2c(O)c1O | > 125 µg/mL | > 125 µg/mL | > 125 µg/mL | > 1760 µM | > 125 µg/mL | > 125 µg/mL | > 125 µg/mL | > 125 µg/mL | > 125 µg/mL | > 125 µg/mL | > 125 µg/mL |  |  |  |  | 
2 | COc1cccc(-c2cc(=O)c3c(O)cc(O)cc3o2)c1 | > 125 µg/mL | > 125 µg/mL | > 125 µg/mL | > 1760 µM | > 125 µg/mL | > 125 µg/mL | > 125 µg/mL | > 125 µg/mL | > 125 µg/mL | > 125 µg/mL | > 125 µg/mL |  |  |  |  | 
3 | COc1cc(-c2oc3cc(O)cc(O)c3c(=O)c2O)cc(OC)c1OC | > 125 µg/mL | > 125 µg/mL | > 125 µg/mL | > 1390 µM | > 125 µg/mL | > 125 µg/mL | > 125 µg/mL | > 125 µg/mL | > 125 µg/mL | > 125 µg/mL | > 125 µg/mL |  |  |  |  | 
4 | O=c1c(O)c(-c2cc(O)cc(O)c2)oc2cc(O)cc(O)c12 | 3.9 µg/mL | > 125 µg/mL | 31.2 µg/mL | 1380 µM | > 125 µg/mL | 500 µg/mL (≈ 1650 µM) | 7.8 µg/mL | > 125 µg/mL | 125 µg/mL (≈ 414 µM) | 500 µg/mL (≈ 1650 µM) | > 125 µg/mL |  |  |  |  | 
5 | O=c1cc(-c2ccccc2)oc2c(O)c(O)ccc12 [7,8-DIHYDROXYFLAVONE] | 7.8 µg/mL | > 125 µg/mL | 62.5 µg/mL | 351 µM | > 125 µg/mL | 31.2 µg/mL (≈ 123 µM) |  | 125 µg/mL | 125 µg/mL (≈ 492 µM) |  | > 125 µg/mL | 15.6 µg/mL | 62.5 µg/mL (≈ 246 µM) |  |  | 
6 | O=c1cc(-c2ccc(O)cc2)oc2cc(O)cc(O)c12 [APIGENIN] | 7.8 µg/mL | > 125 µg/mL | > 125 µg/mL | 250 µM | > 125 µg/mL | > 125 µg/mL | 15.6 µg/mL | > 125 µg/mL | > 125 µg/mL | > 125 µg/mL | > 125 µg/mL |  |  |  |  | 
7 | O=c1cc(-c2ccccc2)oc2cc(O)cc(O)c12 [CHRYSIN] | > 125 µg/mL | > 125 µg/mL | > 125 µg/mL | > 1970 µM | > 125 µg/mL | > 125 µg/mL | > 125 µg/mL | > 125 µg/mL | > 125 µg/mL | > 125 µg/mL | > 125 µg/mL |  |  |  |  | 
8 | O=c1oc2c(O)c(O)cc3c(=O)oc4c(O)c(O)cc1c4c23 [ELLAGIC ACID] | 2 µg/mL | > 125 µg/mL | 7.8 µg/mL | 10.9 µM | > 125 µg/mL | > 125 µg/mL | 31.2 µg/mL | > 125 µg/mL | > 125 µg/mL | > 125 µg/mL | > 125 µg/mL |  |  |  |  | 
9 | O=c1c(O)c(-c2ccc(O)c(O)c2)oc2cc(O)ccc12 [FISETIN] | 3.9 µg/mL | > 125 µg/mL | 15.6 µg/mL | 291 µM | > 125 µg/mL | > 125 µg/mL | 31.2 µg/mL | > 125 µg/mL | 62.5 µg/mL (≈ 218 µM) | > 125 µg/mL | > 125 µg/mL |  |  |  |  | 
10 | O=c1c(O)c(-c2ccccc2)oc2ccccc12 [FLAVONOL] | > 125 µg/mL | > 125 µg/mL | > 125 µg/mL | > 2100 µM | > 125 µg/mL | > 125 µg/mL | > 125 µg/mL | > 125 µg/mL | > 125 µg/mL | > 125 µg/mL | > 125 µg/mL |  |  |  |  | 
11 | O=c1c(O)c(-c2ccccc2)oc2cc(O)cc(O)c12 [GALANGIN] | > 125 µg/mL | > 125 µg/mL | > 125 µg/mL | > 1850 µM | > 125 µg/mL | > 125 µg/mL | > 125 µg/mL | > 125 µg/mL | > 125 µg/mL | > 125 µg/mL | > 125 µg/mL |  |  |  |  | 
12 | COc1ccc(-c2oc3cc(O)cc(O)c3c(=O)c2O)cc1 [KAEMPFERIDE] | > 125 µg/mL | > 125 µg/mL | > 125 µg/mL | > 1670 µM | > 125 µg/mL | > 125 µg/mL | > 125 µg/mL | > 125 µg/mL | > 125 µg/mL | > 125 µg/mL | > 125 µg/mL |  |  |  |  | 
13 | O=c1c(O)c(-c2cc(O)c(O)c(O)c2)oc2cc(O)cc(O)c12 [MYRICETIN] | 3.9 µg/mL | > 125 µg/mL | 15.6 µg/mL | 707 µM | > 125 µg/mL | 62.5 µg/mL (≈ 196 µM) | 15.6 µg/mL | 125 µg/mL | 62.5 µg/mL (≈ 196 µM) | 125 µg/mL (≈ 393 µM) | > 125 µg/mL |  |  |  |  | 
14 | CCn1cc(C(=O)O)c(=O)c2ccc(C)nc21 [NALIDIXIC ACID] | 0.125 µg/mL | 62.5 µg/mL | 0.5 µg/mL |  | 2 µg/mL (≈ 8.61 µM) | 250 µg/mL (≈ 1080 µM) | 2 µg/mL | 15.6 µg/mL | 0.5 µg/mL (≈ 2.15 µM) | 500 µg/mL (≈ 2150 µM) | 3.9 µg/mL (≈ 16.8 µM) |  |  |  |  | 
15 | CC1COc2c(N3CCN(C)CC3)c(F)cc3c(=O)c(C(=O)O)cn1c23 (stereo not given) [OFLOXACIN] | < 0.5 µg/mL | 2 µg/mL | < 0.015 µg/mL |  | 0.0625 µg/mL (≈ 0.173 µM) | ≤ 0.5 µg/mL | 0.0625 µg/mL | 1 µg/mL | < 0.5 µg/mL | ≤ 0.5 µg/mL | 0.125 µg/mL (≈ 0.346 µM) |  |  |  |  | 
16 | O=c1c(O)c(-c2ccc(O)c(O)c2)oc2cc(O)cc(O)c12 [QUERCETIN] | 2 µg/mL | > 125 µg/mL |  | 182 µM and 156 µM | > 125 µg/mL |  |  | > 125 µg/mL | 62.5 µg/mL (≈ 207 µM) | 62.5 µg/mL (≈ 207 µM) | > 125 µg/mL |  | >125 µg/mL | 1 µg/mL | 15.6 µg/mL and 31.25 µg/mL | 31.25 µg/mL (≈ 103 µM)
